In patent publication US11578056B2, “Solid forms comprising (S)-2-(2,6-dioxopiperidin-3-yl)-4-((2-fluoro-4-((3-morpholinoazetidin-1-yl)methyl)benzyl)amino)isoindoline-1,3-dione and salts thereof, and compositions comprising and methods of using the same” (Celgene Corporation, priority 2019, dated 2023):

Assays:
Assay in all cases: Hematological cell line viability/apoptosis flow cytometry assay
Assay type in all cases: cell-based
L-363 cell line = details: L-363 (MM, PCL), 120 h
Protocol: (§1) Cell Proliferation and Viability Assay Using Hematological Cell Lines: The following exemplary anti-proliferative assay uses exemplary hematological cell lines in the following. The in vitro growth inhibitory activity of Compound 1 described herein was evaluated using a 384-well flow cytometry assay.
(§2) The cell lines were plated in 384-well flat bottom plates and assessed with increasing concentrations of compound ranging from 0.00015 to 10 μM or dimethyl sulfoxide (DMSO) control. The final concentration of DMSO was 0.1% (v/v). Following the addition of Compound 1 or DMSO and incubation for 120 hours, cell number and cell death were analyzed by flow cytometry (Attune®, Thermo Fisher) using Annexin V and the live-cell impermeant DNA dye, DRAQ7. Phosphatidylserine translocates from the inner layer to the outer layer of the cell membrane early in apoptosis and Annexin V binds to the exposed phosphatidylserine found on the surface of an apoptotic cell. The vital dye DRAQ7 is excluded by intact live cells and only stains cells that have died as a result of apoptosis or necrosis.
(§3) Flow cytometry data analysis was then performed using the Flow Jo_v10 software to determine the number of viable cells (Annexin V and DRAQ7 double negative staining cells) and percentage of apoptotic cells (Annexin V positive cells) for each condition. The live cell count for every concentration was normalized to the DMSO control (considered as 100%) to calculate the percentage of viable cells remaining after treatment and graphed using GraphPad Prism 7.03. The IC50 (50% inhibitory concentration) and Emax (maximum efficacy achieved) values were then calculated by performing nonlinear regression curve fitting using log(inhibitor) vs. normalized response—variable slope analysis on GraphPad Prism 7.03. Area under the curve (AUC) was calculated by performing area under curve analysis on GraphPad Prism 7.03. Similarly, for apoptosis analysis, the percentage of apoptosis combining both “early” (Annexin V positive and DRAQ7 negative) and “late” apoptosis (Annexin V and DRAQ7 positive) cell gates relative to DMSO was graphed using GraphPad Prism 7.03. The AUC, EC50 (concentration of compound that produces half-maximal apoptosis response) and Ymax (maximal percentage of apoptosis achieved) values from apoptosis curves were calculated by performing area under curve analysis and nonlinear regression curve fitting using log(agonist) vs. normalized response—Variable slope analysis on GraphPad Prism 7.03.
(§4) Dose-response proliferation curves for the panel of hematological cell lines and non-linear curve-fit regression were used to determine IC50, AUC, and Emax for % viable cells (Emax for viability varies between 100 at low doses and 0 at high doses, which corresponds to inhibition of all viable cells), and dose-response apoptosis curves were used to determine the EC50, AUC, and Ymax for % apoptosis (Ymax for apoptosis varies from 0 at low doses and 100 at higher doses which corresponds to death of all cells). Tumor cells were exposed to serial dilutions (0.00015 to 10 μM) of Compound 1 or dimethyl sulfoxide (DMSO) control for 5 days. Viability and apoptosis for all cell lines was determined by Annexin V/7-aminoactinomycin D (7-AAD) flow cytometry.

RIVA cell line = details: RIVA (DLBCL ABC), 120 h
Protocol: as §1, §2, §3, §4

SU-DHL-6 cell line = details: SU-DHL-6 (DLBCL GCB); 120 h
Protocol: as §1, §2, §3, §4

STR428 cell line = details: STR428 (DLBCL), 120 h
Protocol: as §1, §2, §3, §4

HNT-34 cell line = details: HNT-34 (AML), 120 h
Protocol: as §1, §2, §3, §4

Rec-1 cell line = details: Rec-1 (MCL); 120 h
Protocol: as §1, §2, §3, §4

NCI-H929 cell line = details: NCI-H929 (MM), 120 h
Protocol: as §1, §2, §3, §4

SK-MM-1 cell line = details: SK-MM-1 (MM, PCL), 120 h
Protocol: as §1, §2, §3, §4

KARPAS-422 cell line = details: KARPAS-422 (DLBCL GCB); 120 h
Protocol: as §1, §2, §3, §4

Farage cell line = details: Farage (DLBCL PMBL); 120 h
Protocol: as §1, §2, §3, §4

JJN-3 cell line = details: JJN-3 (MM, PCL), 120 h
Protocol: as §1, §2, §3, §4

SU-DHL-10 cell line = details: SU-DHL-10 (DLBCL GCB); 120 h
Protocol: as §1, §2, §3, §4

EHEB cell line = details: EHEB (CLL), 120 h
Protocol: as §1, §2, §3, §4

[1] = Homo sapiens, read-out: % Viable Cells IC50

O=C1CC[C@H](N2C(=O)c3cccc(NCc4ccc(CN5CC(N6CCOCC6)C5)cc4F)c3C2=O)C(=O)N1 [Compound 1, (S)-2-(2,6-dioxopiperidin-3-yl)-4-((2-fluoro-4-((3-morpholinoazetidin-1-yl)methyl)benzyl)amino)isoindoline-1,3-dione]
EC50 (L-363 cell line; Homo sapiens): 7950 nM | IC50 (L-363 cell line; [1]): 1 nM | % Viable Cells AUC (L-363 cell line): 309.1 | % Viable Cells Emax (L-363 cell line): 27.6% | Apoptosis AUC (L-363 cell line): 2.954 | Apoptosis Ymax (L-363 cell line): 2% | % Viable Cells AUC (RIVA cell line): 452.6 | % Viable Cells Emax (RIVA cell line): 36.65% | Apoptosis AUC (RIVA cell line): 242.8 | Apoptosis Ymax (RIVA cell line): 27.92% | EC50 (RIVA cell line): 17.7 nM | IC50 (RIVA cell line; read-out: % Viable Cells IC50): 114 nM | % Viable Cells AUC (SU-DHL-6 cell line): 19.94 | % Viable Cells Emax (SU-DHL-6 cell line): 0.2469% | Apoptosis AUC (SU-DHL-6 cell line): 920.7 | Apoptosis Ymax (SU-DHL-6 cell line): 95.92% | % Viable Cells AUC (STR428 cell line): 43.48 | % Viable Cells Emax (STR428 cell line): 1.227% | Apoptosis AUC (STR428 cell line): 905.9 | Apoptosis Ymax (STR428 cell line): 95.17% | EC50 (STR428 cell line): 102 nM | IC50 (STR428 cell line; read-out: % Viable Cells IC50): 94.7 nM | % Viable Cells AUC (HNT-34 cell line): 353 | % Viable Cells Emax (HNT-34 cell line): 20.47% | Apoptosis AUC (HNT-34 cell line): 130.1 | Apoptosis Ymax (HNT-34 cell line): 44.33% | EC50 (HNT-34 cell line): 876 nM | IC50 (HNT-34 cell line; read-out: % Viable Cells IC50): 26 nM | % Viable Cells AUC (Rec-1 cell line): 281.8 | % Viable Cells Emax (Rec-1 cell line): 21.04% | Apoptosis AUC (Rec-1 cell line): 508.5 | Apoptosis Ymax (Rec-1 cell line): 57.27% | EC50 (NCI-H929 cell line; Homo sapiens): 11300 nM | IC50 (NCI-H929 cell line; [1]): 0.7 nM | % Viable Cells AUC (NCI-H929 cell line): 215.5 | % Viable Cells Emax (NCI-H929 cell line): 6.1% | Apoptosis AUC (NCI-H929 cell line): 16.86 | Apoptosis Ymax (NCI-H929 cell line): 7.00% | % Viable Cells AUC (SK-MM-1 cell line): 202.2 | % Viable Cells Emax (SK-MM-1 cell line): 3% | Apoptosis AUC (SK-MM-1 cell line): 90.99 | Apoptosis Ymax (SK-MM-1 cell line): 44.5% | EC50 (SK-MM-1 cell line): 86400 nM | IC50 (SK-MM-1 cell line; read-out: % Viable Cells IC50): 0.8 nM | % Viable Cells AUC (KARPAS-422 cell line): 19.97 | % Viable Cells Emax (KARPAS-422 cell line): 0.8721% | Apoptosis AUC (KARPAS-422 cell line): 911.9 | Apoptosis Ymax (KARPAS-422 cell line): 93.99% | % Viable Cells AUC (Farage cell line): 10.16 | % Viable Cells Emax (Farage cell line): 0.7936% | Apoptosis AUC (Farage cell line): 728.7 | Apoptosis Ymax (Farage cell line): 84.17% | IC50 (JJN-3 cell line; [1]): 0.4 nM | % Viable Cells AUC (JJN-3 cell line): 278.2 | % Viable Cells Emax (JJN-3 cell line): 21.6% | Apoptosis AUC (JJN-3 cell line): 57.97 | Apoptosis Ymax (JJN-3 cell line): 26% | % Viable Cells AUC (SU-DHL-10 cell line): 10.36 | % Viable Cells Emax (SU-DHL-10 cell line): 0.6716% | Apoptosis AUC (SU-DHL-10 cell line): 903 | Apoptosis Ymax (SU-DHL-10 cell line): 92.27% | % Viable Cells AUC (EHEB cell line): 319.3 | % Viable Cells Emax (EHEB cell line): 28.68% | Apoptosis AUC (EHEB cell line): 65.03 | Apoptosis Ymax (EHEB cell line): 8.42% | EC50 (EHEB cell line): 506 nM | IC50 (EHEB cell line; read-out: % Viable Cells IC50): 30.3 nM
